The results in this text go back to patent publication US5661165A, “((4-phenyl-1,2,5-thiadiazol-3-yl)oxy)methyl ester thiocyanic acid compounds, compositions containing them and their use as antimicrobial and marine antifouling agents” (The Dow Chemical Company, priority 1996, dated 1997).

Values after ≈ are worked out from the molar mass of the structure shown. Like-named read-outs stand apart in the source and are kept apart here.

For assay [1], the system named is Bacillus subtilis (Bs). Briefly: MIC against bacteria (nutrient agar). The class given is cell-based, Bacillus subtilis ATCC 8473. The settings on record: 30° C., 48 h, read-out: Minimum Inhibitory Concentration, Bs.
Assay [2] relates to Enterobacter aerogenes (Ea). Kind of assay: MIC against bacteria (nutrient agar). The class given is cell-based, Enterobacter aerogenes ATCC 13048. To be noted: Klebsiella aerogenes, 30° C., 48 h, read-out: Minimum Inhibitory Concentration, Ea.
Assay [3] deals with Escherichia coli (Ec). Kind of assay: MIC against bacteria (nutrient agar). Type of assay: cell-based, Escherichia coli ATCC 11229. The settings on record: 30° C., 48 h, read-out: Minimum Inhibitory Concentration, Ec.
Assay [4] concerns Klebsiella pneumoniae (Kp). Kind of assay: MIC against bacteria (nutrient agar). The class given is cell-based, Klebsiella pneumoniae ATCC 8308. The settings on record: 30° C., 48 h, read-out: Minimum Inhibitory Concentration, Kp.
In assay [5] the test system is Proteus vulgaris (PV). Briefly: MIC against bacteria (nutrient agar). The settings on record: 30° C., 48 h, read-out: Minimum Inhibitory Concentration, Pv. Type of assay: cell-based, Proteus vulgaris ATCC 881.
Assay [6] deals with Psuedomonas aeruginosa (Pa). Kind of assay: MIC against bacteria (nutrient agar). To be noted: 30° C., 48 h, read-out: Minimum Inhibitory Concentration, Pa. The class given is cell-based, Psuedomonas aeruginosa ATCC 10145. The method, then: (§1) The antimicrobial activity of the compounds of the present invention is set forth as the minimum inhibitory concentration (MIC) for the active compounds and is determined for nine (9) bacteria, using nutrient agar, and seven (7) yeast and fungi, using malt yeast agar. This determination is conducted using a one percent solution of the test compound prepared in a mixture of acetone and water.
Nutrient agar is prepared at pH 6.8, representing a neutral medium, and at pH 8.2, representing an alkaline medium. The nutrient agars are prepared by adding 23 g of nutrient agar to one-liter of deionized water. In addition, the alkaline medium is prepared by adjusting a 0.04M solution of N-[tris-(hydroxymethyl)methyl]-glycine buffered deionized water with concentrated sodium hydroxide to a pH of 8.5.
(§2) The test tubes containing the agar are cooled in a water bath until the temperature of the agar is 48° C. Then, an appropriate amount of the one percent solution of the test compound is added (except in the controls where no compound is added) to the respective test tubes so that the final concentrations are 500, 250, 100, 50, 25, 10, 5, 2.5, 1.0 and zero parts per million of the test compound in the agar, thus having a known concentration of test compound dispersed therein. The contents of the test tubes are then transferred to respective petri plates. After drying for 24 hours, the petri plates containing nutrient agar are inoculated with bacteria and those containing malt yeast agar are inoculated with yeast and fungi.
The inoculation with bacteria is accomplished by using the following procedure. Twenty-four hour-cultures of each of the bacteria are prepared by incubating the respective bacteria in tubes containing nutrient broth for 24 hours at 30° C. in a shaker. Dilutions of each of the 24 hour-cultures are made so that nine separate suspensions (one for each of the nine test bacteria) are made, each containing 10^8 colony forming units (CFU) per mL of suspension of a particular bacteria. Aliquots of 0.3 mL of each of the bacterial suspensions are used to fill the individual wells of Steer's Replicator. For each microbial suspension, 0.3 mL was used to fill three wells (i.e., three wells of 0.3 mL each) so that for the nine different bacteria, 27 wells are filled. The Steer's Replicator is then used to inoculate both the neutral and alkaline pH nutrient agar petri plates.
The inoculated petri plates are incubated at 30° C. for 48 hours and then read to determine if the test compound which is incorporated into the agar prevented growth of the respective bacteria.
(§3) Table I lists the bacteria, yeast and fungi used in the MIC test described above along with their respective American Type Culture Collection (ATCC) identification numbers.

The subject of assay [7] is Staphylococcus aureus (Sa). Kind of assay: MIC against bacteria (nutrient agar). Type of assay: cell-based, Staphylococcus aureus ATCC 6538. The settings on record: 30° C., 48 h, read-out: Minimum Inhibitory Concentration, Sa.
For assay [8], the system named is Aperigillus niger (An). Briefly: MIC against yeast/fungi (malt yeast agar). Type of assay: cell-based, Aperigillus niger ATCC 16404. The settings on record: 30° C., fungi read after 72 h, read-out: Minimum Inhibitory Concentration, An. The method, then: as §1
(§4) Malt yeast agar is prepared by adding 3 g yeast extract and 45 g malt agar per liter of deionized water. The specific agar is dispensed in 30 mL aliquots into 25×200 mm test tubes, capped and autoclaved for 15 minutes at 115° C.
as §2
(§5) The inoculation with the yeast and fungi is accomplished as follows. Cultures of yeast and fungi are incubated for seven days on malt yeast agar at 30° C. These cultures are used to prepare suspensions by the following procedure. A suspension of each organism is prepared by adding 10 mL of sterile saline and 10 microliters of octylphenoxy polyethoxy ethanol to the agar slant of yeast or fungi. The sterile saline/octylphenoxy polyethoxy ethanol solution is then agitated with a sterile swab to suspend the microorganism grown on the slant. Each resulting suspension is diluted into sterile saline (1 part suspension to 9 parts sterile saline). Aliquots of these dilutions are placed in individual wells of Steer's Replicator and petri plates inoculated as previously described. The petri plates are incubated at 30° C. and read after 48 hours for yeast and 72 hours for fungi.
as §3

Assay [9] has as its system Saccharomyces cerevisiae (Sc). Briefly: MIC against yeast/fungi (malt yeast agar). The class given is cell-based, Saccharomyces cerevisiae ATCC 4105. To be noted: 30° C., yeast read after 48 h, read-out: Minimum Inhibitory Concentration, Sc. The method, then:
as §1, §4, §2, §5, §3

For assay [10], the system named is Trichoderma viride (Tv). Kind of assay: MIC against yeast/fungi (malt yeast agar). Type of assay: cell-based, Trichoderma viride ATCC 8678. To be noted: 30° C., fungi read after 72 h, read-out: Minimum Inhibitory Concentration, Tv. The method, then:
as §1, §4, §2, §5, §3

Assay [11] concerns Aureobasidium pullulan (Ap). Kind of assay: MIC against yeast/fungi (malt yeast agar). Type of assay: cell-based, Aureobasidium pullulan ATCC 16622. To be noted: 30° C., yeast 48 h / fungi 72 h, read-out: Minimum Inhibitory Concentration, Ap. The method, then:
as §1, §4, §2, §5, §3

Turning to `N#CSCOc1nsnc1-c1ccccc1` [Example I, ((4-Phenyl-1,2,5-thiadiazol-3-yl)oxy)methyl ester thiocyanic acid], the MIC in assay [1] (pH 6.8, nutrient agar) was below 10 µg/mL; in assay [1] (pH 8.2, nutrient agar) it was below 10 µg/mL; in assay [2] (pH 6.8, nutrient agar), above 500 µg/mL; in [2] (pH 8.2, nutrient agar) it was 500 µg/mL (≈ 2010 µM); in assay [3] (pH 6.8, nutrient agar), 500 µg/mL (≈ 2010 µM); in assay [3] (pH 8.2, nutrient agar), above 500 µg/mL. Also, the MIC in assay [4] (pH 6.8, nutrient agar) was 500 µg/mL (≈ 2010 µM); in assay [4] (pH 8.2, nutrient agar), 500 µg/mL (≈ 2010 µM); in assay [5] (pH 6.8, nutrient agar) it was above 500 µg/mL; in assay [5] (pH 8.2, nutrient agar), 500 µg/mL (≈ 2010 µM); in assay [6] (pH 6.8, nutrient agar) it was above 500 µg/mL; in [6] (pH 8.2, nutrient agar), above 500 µg/mL. The MIC was 25 µg/mL (≈ 100 µM) in [7] (pH 6.8, nutrient agar); 25 µg/mL (≈ 100 µM) in [7] (pH 8.2, nutrient agar); below 1 µg/mL in assay [8]; 2.5 µg/mL (≈ 10 µM) in assay [9]; 25 µg/mL (≈ 100 µM) in assay [10]; below 1 µg/mL in assay [11].
